{"source": "patent US20140024663A1", "about": "“ATB(0,+) AMINO ACID TRANSPORTER AS A DRUG TARGET FOR TREATMENT OF ESTROGEN RECEPTOR-POSITIVE BREAST CANCER” (GEORGIA HEALTH SCIENCES UNIVERSITY RESEARCH INSTITUTE, INC., priority 2012, published 2014)", "format_in_all_cases": "cell-based, human", "key": {"[1]": {"tested_on": "MCF7 cells", "assay": "Analysis of autophagy (LC3 localization, electron microscopy, autophagosomal proteolysis, GFP-LC3)", "details": "MCF7, α-MT 2.5 mM, 48 h", "protocol": "(§1) FIGS. 6A to 6C. Effects of SLC6A14 blockade with α-MT in breast cancer cells. In FIG. 6A, MCF10A (a non-malignant mammary epithelial cell line), MCF7 (an ER-positive breast cancer cell line), and MB231 (an ER-negative breast cancer cell line) cells were treated with or without 2.5 mM α-MT for 24, 48, or 72 h and then used for analysis of asparagine synthetase (ASNS) and CHOP mRNA levels. In FIG. 6B, MCF7, MB231 and MCF10A cells were treated with or without 2.5 mM α-MT for 48 h and then used for immunocytochemical analysis of the constitutively expressed LC-3. In FIG. 6C, MCF7 cells were treated with (“b” and “c”) or without (“a”) α-MT (2.5 mM) for 48 h and then used for electron microscopy. Arrows indicate sequestration of cytoplasm and organelles in pre-autophagosomes and autophagosome, and the asterisk indicates condensed chromatin. N, nucleus.\nFIGS. 7A and 7B. Induction of autophagy in MCF7 cells by α-MT. […] The concentrations of α-MT and 3-MA, when present, were 2.5 mM and 10 mM. The treatment time was 48 h. The extent of proteolysis was determined by the radioactivity present in the protein-free supernatant. […] In FIG. 7B, MCF7 cells were transfected with an GFP-LC3 expression plasmid, and 24 h later, the cells were treated with or without α-MT (2.5 mM) in the presence or absence of 3-MA (10 mM) for 48 h. At the end of the treatment, cells were fixed, and the percent of cells with punctate localization of the ectopically expressed GFP-LC3 was quantified. “a” represents compared to control; “b” represents compared to treatment with α-MT alone; and “c” represents compared to treatment with […]; *, p<0.001.\nAnalysis of autophagy. Autophagy was analyzed as described previously (Periyasamy-Thandavan et al., 2010, Autophagy; 6:19-35; and Samaddar et al., 2008, Mol Cancer Ther; 7:2977-2987) by monitoring the localization pattern of constitutively expressed LC3 as well as that of ectopically expressed GFP-LC3. In the case of the constitutively expressed LC3, cells were treated without or with α-MT, and then used for immunocytochemical analysis of LC3 localization pattern. For ectopically expressed LC3, cells were transfected with a GFP-LC3 expression plasmid. Briefly, cells were plated on a coverslip to reach ˜50% confluence and transfection of these cells was done with 1 μg of the plasmid using FuGENE transfection reagent (Roche, Nutley, N.J.). […] At the end of the treatment, cells were fixed with 4% paraformaldehyde and examined by fluorescence microscopy to count the number of cells with punctate GFP-LC3. Autophagosomal proteolysis was quantified as described previously (Periyasamy-Thandavan et al., 2010, Autophagy; 6:19-35). […]"}, "[2]": {"tested_on": "MB231 cells", "assay": "ASNS and CHOP mRNA by RT-PCR as readout for amino acid deprivation", "details": "SLC6A14-negative MB231, α-MT 2.5 mM, 24, 48 or 72 h", "protocol": "as §1\n(§2) RT-PCR. Total RNA was isolated using TRIZOL™ (Invitrogen). 2 μg of RNA was reverse transcribed using the GeneAmp PCR System (Applied Biosystems, Branchburg, N.J.). PCR reaction was performed under optimal conditions specific for each of the primer pairs. GAPDH (glyceraldehyde-3-phosphate dehydrogenase) or HPRT1 (hypoxanthine/guanine phosphoribosyl transferase-1) were used as internal controls. PCR products were size-fractionated on agarose gel, stained with ethidium bromide and imaged using Alpha Imager (Santa Clara, Calif.). […]"}, "[3]": {"tested_on": "MCF10A cells", "assay": "ASNS and CHOP mRNA by RT-PCR as readout for amino acid deprivation", "details": "SLC6A14-negative MCF10A, α-MT 2.5 mM, 24, 48 or 72 h", "protocol": "as §1, §2"}}}
{"smiles": "CC(N)(Cc1c[nH]c2ccccc12)C(=O)O", "note": "(racemic) [α-MT, α-methyl-DL-tryptophan]", "values": [{"measurement": "autophagosomal proteolysis of 14C-labeled proteins", "setting": "[1]", "value": "increased proteolysis"}, {"measurement": "autophagy (punctate localization of constitutively expressed LC3, autophagosomes in electron microscopy)", "setting": "[1]", "value": "induced autophagy"}, {"measurement": "levels of asparagine synthetase mRNA and CHOP mRNA", "setting": "[2]", "value": "not"}, {"measurement": "levels of asparagine synthetase mRNA and CHOP mRNA", "setting": "[3]", "value": "not"}]}
